From US20240228488A1 (TAKEDA PHARMACEUTICAL COMPANY LIMITED, priority 2021, published 2024)

Columns and labels:
[1] = biological target: human activated kallikrein enzyme (Homo sapiens, UniProt P03952); experiment: Plasma kallikrein inhibition, fluorogenic PFR-AMC substrate, 500 pM activated kallikrein format; assay type: biochemical; details: 500 pM activated kallikrein, 300 uM PFR-AMC, 30 min preincubation, 10 min reaction; read-out: Primary Dose Response Assay: Average EC50
How it was run: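 Enzyme at 500 pM preincubated 30 min RT with inhibitors in 20 mM Tris pH 7.5, 1 mM EDTA, 150 mM NaCl, 0.1% PEG-400, 0.1% Triton X-100. Reaction started with 300 uM PFR-AMC, run 10 min RT; fluorescence read at 460 nm emission, 380 nm excitation. EC50 reported in ranges.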

plasma kallikrein = biological target: T1, plasma kallikrein (Homo sapiens, UniProt P03952); experiment: Neat human plasma assay, FXIIa contact pathway-activated, PFR-AMC substrate; assay type: biochemical; details: citrated human plasma 78% final, 10 nM human FXIIa, 100 μM PFR-AMC; read-out: Human Plasma Assay: IC90
T1 construct: from tissue
T1 sequence (P03952 391-638 limits assumed): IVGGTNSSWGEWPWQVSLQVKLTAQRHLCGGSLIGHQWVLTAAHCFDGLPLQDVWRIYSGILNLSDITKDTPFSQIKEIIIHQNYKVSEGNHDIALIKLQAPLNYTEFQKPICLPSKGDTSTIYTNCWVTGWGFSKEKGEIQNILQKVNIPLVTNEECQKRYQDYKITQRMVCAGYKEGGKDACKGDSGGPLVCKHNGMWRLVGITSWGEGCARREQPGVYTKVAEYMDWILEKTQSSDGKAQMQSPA
T1 sequence (P03952 20-390 partner limits assumed): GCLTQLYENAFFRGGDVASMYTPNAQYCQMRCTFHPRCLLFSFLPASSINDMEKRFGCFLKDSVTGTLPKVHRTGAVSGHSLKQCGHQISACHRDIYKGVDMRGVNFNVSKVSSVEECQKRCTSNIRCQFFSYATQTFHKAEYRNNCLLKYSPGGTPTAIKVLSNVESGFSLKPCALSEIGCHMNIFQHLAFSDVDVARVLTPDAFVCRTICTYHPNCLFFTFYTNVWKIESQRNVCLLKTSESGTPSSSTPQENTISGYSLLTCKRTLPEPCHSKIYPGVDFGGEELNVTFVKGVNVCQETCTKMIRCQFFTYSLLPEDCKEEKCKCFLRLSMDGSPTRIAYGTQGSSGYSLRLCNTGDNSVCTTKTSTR
How it was run: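 Citrated human plasma (78% final) with compound, contact-activated by 10 nM human FXIIa in pKal buffer pH 7.5, with 100 μM PFR-AMC. Fluorescence (360/480 nm) followed 5 min at room temperature; rates versus concentration fitted by 4-parameter equation for IC50/IC90.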

Sequence of human activated kallikrein enzyme (P03952 391-638 limits assumed): as the sequence (P03952 391-638 limits assumed) above
Sequence of human activated kallikrein enzyme (P03952 20-390 partner limits assumed): as the sequence (P03952 20-390 partner limits assumed) above

SMILES | EC50 [1] | IC90 (plasma kallikrein)
O=C(Nc1cc(NCc2cn3cc(C4CC4)ccc3n2)cc(=O)[nH]1)[C@H]1C[C@@H]1c1cc(Cl)ccn1 [Example 343, (1S,2S)-2-(4-chloropyridin-2-yl)-N-(4-(((6-cyclopropylimidazo[1,2-a]pyridin-2-yl)methyl)amino)-6-oxo-1,6-dihydropyridin-2-yl)cyclopropane-1-carboxamide] | < 1 nM | 1500 to 10000 nM
COCc1nc(NC(=O)[C@H]2C[C@@H]2c2nccc(C)n2)cc(N(C)Cc2cn3cc(C4CC4)cc(N4CC(=O)N(C)C4=O)c3n2)n1 [Example 354, (1S,2S)-N-(6-(((6-cyclopropyl-8-(3-methyl-2,4-dioxoimidazolidin-1-yl)imidazo[1,2-a]pyridin-2-yl)methyl)(methyl)amino)-2-(methoxymethyl)pyrimidin-4-yl)-2-(4-methylpyrimidin-2-yl)cyclopropane-1-carboxamide] | < 1 nM | < 400 nM
COCc1nc(NC(=O)[C@H]2C[C@@H]2c2nccc(C)n2)cc(N[C@H](C)c2cn3cc(C4CC4)cc(N4CC(=O)N(C)C4=O)c3n2)n1 [Example 355, (1S,2S)-N-(6-(((R)-1-(6-cyclopropyl-8-(3-methyl-2,4-dioxoimidazolidin-1-yl)imidazo[1,2-a]pyridin-2-yl)ethyl)amino)-2-(methoxymethyl)pyrimidin-4-yl)-2-(4-methylpyrimidin-2-yl)cyclopropane-1-carboxamide] | < 1 nM | < 400 nM
Cc1ccnc([C@H]2C[C@@H]2C(=O)Nc2cc(NC(C)c3cn4cc(Cl)cc(N5CC(=O)N(C)C5=O)c4n3)nc(C)n2)n1 (stereo partly drawn) [Example 356, (1S,2S)-N-(6-((1-(6-chloro-8-(3-methyl-2,4-dioxoimidazolidin-1-yl)imidazo[1,2-a]pyridin-2-yl)ethyl)amino)-2-methylpyrimidin-4-yl)-2-(4-methylpyrimidin-2-yl)cyclopropane-1-carboxamide] | < 1 nM | 1500 to 10000 nM
Cc1ccnc([C@H]2C[C@@H]2C(=O)Nc2cc(NCc3cn4cc(C5CC5)cc(N5C(=O)N(C)C(=O)C56CC6)c4n3)nc(C)n2)n1 [Example 357, (1S,2S)-N-(6-(((6-cyclopropyl-8-(6-methyl-5,7-dioxo-4,6-diazaspiro[2.4]heptan-4-yl)imidazo[1,2-a]pyridin-2-yl)methyl)amino)-2-methylpyrimidin-4-yl)-2-(4-methylpyrimidin-2-yl)cyclopropane-1-carboxamide] | < 1 nM | < 400 nM
CC[C@@H](Nc1cc(NC(=O)[C@H]2C[C@@H]2c2nccc(C)n2)nc(C)n1)c1cn2cc(C3CC3)cc(N3CC(=O)N(C)C3=O)c2n1 [Example 358, (1S,2S)-N-(6-(((R)-1-(6-cyclopropyl-8-(3-methyl-2,4-dioxoimidazolidin-1-yl)imidazo[1,2-a]pyridin-2-yl)propyl)amino)-2-methylpyrimidin-4-yl)-2-(4-methylpyrimidin-2-yl)cyclopropane-1-carboxamide] | < 1 nM | 400 to 1500 nM
Cc1ccnc([C@H]2C[C@@H]2C(=O)Nc2cc(N(C)Cc3cn4cc(C5CC5)cc(N5CC(=O)N(CC(C)(C)O)C5=O)c4n3)nc(C)n2)n1 [Example 359, (1S,2S)-N-(6-(((6-cyclopropyl-8-(3-(2-hydroxy-2-methylpropyl)-2,4-dioxoimidazolidin-1-yl)imidazo[1,2-a]pyridin-2-yl)methyl)(methyl)amino)-2-methylpyrimidin-4-yl)-2-(4-methylpyrimidin-2-yl)cyclopropane-1-carboxamide] | < 1 nM | 400 to 1500 nM
CCN(Cc1cn2cc(C3CC3)cc(N3CC(=O)N(C)C3=O)c2n1)c1cc(NC(=O)[C@H]2C[C@@H]2c2nccc(C)n2)nc(C)n1 [Example 360, (1S,2S)-N-(6-(((6-cyclopropyl-8-(3-methyl-2,4-dioxoimidazolidin-1-yl)imidazo[1,2-a]pyridin-2-yl)methyl)(ethyl)amino)-2-methylpyrimidin-4-yl)-2-(4-methylpyrimidin-2-yl)cyclopropane-1-carboxamide] | 1 to 10 nM | 400 to 1500 nM
Cc1ccnc([C@H]2C[C@@H]2C(=O)Nc2cc(N[C@H](C)c3cn4cc(C5CC5)cc(S(C)(=O)=O)c4n3)nc(C)n2)n1 [Example 361, (1S,2S)-N-(6-(((R)-1-(6-cyclopropyl-8-(methylsulfonyl)imidazo[1,2-a]pyridin-2-yl)ethyl)amino)-2-methylpyrimidin-4-yl)-2-(4-methylpyrimidin-2-yl)cyclopropane-1-carboxamide] | < 1 nM | 400 to 1500 nM
Cc1ccnc([C@H]2C[C@@H]2C(=O)Nc2cc(NC(C)c3cn4cc(C5CC5)cc(S(C)(=O)=O)c4n3)nc(C)n2)n1 (stereo partly drawn) [Example 363, (1S,2S)-N-(6-((1-(6-cyclopropyl-8-(methylsulfonyl)imidazo[1,2-a]pyridin-2-yl)ethyl)amino)-2-methylpyrimidin-4-yl)-2-(4-methylpyrimidin-2-yl)cyclopropane-1-carboxamide] | < 1 nM | 1500 to 10000 nM
Cc1ccnc([C@H]2C[C@@H]2C(=O)Nc2cc(NC(C)c3cn4cc(C5CC5)cc(N5CCN(C)C5=O)c4n3)nc(C)n2)n1 (stereo partly drawn) [Example 364, (1S,2S)-N-(6-((1-(6-cyclopropyl-8-(3-methyl-2-oxoimidazolidin-1-yl)imidazo[1,2-a]pyridin-2-yl)ethyl)amino)-2-methylpyrimidin-4-yl)-2-(4-methylpyrimidin-2-yl)cyclopropane-1-carboxamide] | < 1 nM | 400 to 1500 nM
Cc1ccnc([C@H]2C[C@@H]2C(=O)Nc2cc(NCc3cn4cc(C5CC5)cc(N5CC(=O)N(C)C5=O)c4n3)nc(C)n2)n1 [Example 365, (1S,2S)-N-(6-(((6-cyclopropyl-8-(3-methyl-2,4-dioxoimidazolidin-1-yl)imidazo[1,2-a]pyridin-2-yl)methyl)amino)-2-methylpyrimidin-4-yl)-2-(4-methylpyrimidin-2-yl)cyclopropane-1-carboxamide] | < 1 nM | < 400 nM
Cc1ccnc([C@H]2C[C@@H]2C(=O)Nc2cc(NCc3cn4cc(C5CC5)cc(-n5c(=O)n(C)c(=O)n5C)c4n3)ncn2)n1 [Example 367, (1S,2S)-N-(6-(((6-cyclopropyl-8-(2,4-dimethyl-3,5-dioxo-1,2,4-triazolidin-1-yl)imidazo[1,2-a]pyridin-2-yl)methyl)amino)pyrimidin-4-yl)-2-(4-methylpyrimidin-2-yl)cyclopropane-1-carboxamide] | < 1 nM | 400 to 1500 nM
Cc1ccnc([C@H]2C[C@@H]2C(=O)Nc2cc(N(C)Cc3cn4cc(C5CC5)cc(N5CC(=O)N(CC(C)(C)O)C5=O)c4n3)ncn2)n1 [Example 368, (1S,2S)-N-(6-(((6-cyclopropyl-8-(3-(2-hydroxy-2-methylpropyl)-2,4-dioxoimidazolidin-1-yl)imidazo[1,2-a]pyridin-2-yl)methyl)(methyl)amino)pyrimidin-4-yl)-2-(4-methylpyrimidin-2-yl)cyclopropane-1-carboxamide] | < 1 nM | < 400 nM
Cc1ccnc([C@H]2C[C@@H]2C(=O)Nc2cc(N(C)C(C)c3cn4cc(C5CC5)cc(N5CC(=O)N(C)C5=O)c4n3)ncn2)n1 (stereo partly drawn) [Example 369, (1S,2S)-N-(6-((1-(6-cyclopropyl-8-(3-methyl-2,4-dioxoimidazolidin-1-yl)imidazo[1,2-a]pyridin-2-yl)ethyl)(methyl)amino)pyrimidin-4-yl)-2-(4-methylpyrimidin-2-yl)cyclopropane-1-carboxamide] | 1 to 10 nM | 1500 to 10000 nM
Cc1ccnc([C@H]2C[C@@H]2C(=O)Nc2cc(N(CC(=O)OCc3ccccc3)Cc3cn4cc(C5CC5)cc(N5CC(=O)N(C)C5=O)c4n3)ncn2)n1 [Example 371, benzyl N-((6-cyclopropyl-8-(3-methyl-2,4-dioxoimidazolidin-1-yl)imidazo[1,2-a]pyridin-2-yl)methyl)-N-(6-((1S,2S)-2-(4-methylpyrimidin-2-yl)cyclopropane-1-carboxamido)pyrimidin-4-yl)glycinate] | 1 to 10 nM | 1500 to 10000 nM
Cc1ccnc([C@H]2C[C@@H]2C(=O)Nc2cc(NCc3cn4cc(C5CC5)cc(N5CC6(COC6)OC5=O)c4n3)ncn2)n1 [Example 372, (1S,2S)-N-(6-(((6-cyclopropyl-8-(6-oxo-2,5-dioxa-7-azaspiro[3.4]octan-7-yl)imidazo[1,2-a]pyridin-2-yl)methyl)amino)pyrimidin-4-yl)-2-(4-methylpyrimidin-2-yl)cyclopropane-1-carboxamide] | < 1 nM | < 400 nM
COCC(Nc1cc(NC(=O)[C@H]2C[C@@H]2c2nccc(C)n2)ncn1)c1cn2cc(C3CC3)cc(N3CC(=O)N(C)C3=O)c2n1 (stereo partly drawn) [Example 373, (1S,2S)-N-(6-((1-(6-cyclopropyl-8-(3-methyl-2,4-dioxoimidazolidin-1-yl)imidazo[1,2-a]pyridin-2-yl)-2-methoxyethyl)amino)pyrimidin-4-yl)-2-(4-methylpyrimidin-2-yl)cyclopropane-1-carboxamide] | 1 to 10 nM | 400 to 1500 nM
Cc1ccnc([C@H]2C[C@@H]2C(=O)Nc2cc(NCc3cn4cc(C5(F)CC5)cc(N5CC(=O)N(C)C5=O)c4n3)ncn2)n1 [Example 374, (1S,2S)-N-(6-(((6-(1-fluorocyclopropyl)-8-(3-methyl-2,4-dioxoimidazolidin-1-yl)imidazo[1,2-a]pyridin-2-yl)methyl)amino)pyrimidin-4-yl)-2-(4-methylpyrimidin-2-yl)cyclopropane-1-carboxamide] | < 1 nM | < 400 nM
